In one assay the test system is HBV rcDNA in HepDE19 cells. Kind of assay: HepDE19 assay with bDNA quantitation of HBV rcDNA. To be noted: Hepatitis B virus, HepDE19, 168 h, inhibition of rcDNA formation in HepDE19 cells (HepG2 derived), Tet-free medium, 7 day incubation, Quantigene 2.0 bDNA readout, top concentration 25 μM; read-out: DE-19bDNA EC50. The format is cell-based, hepatitis B virus (HBV). Put shortly:
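HepDE19 cells (HepG2-derived, Tet-regulated HBV) switched to Tet-free medium, then treated 7 days at 37 °C with compound, 8-point titration from 25 μM, 0.5% DMSO. rcDNA quantified by bDNA with HBV probes; EC50/EC90 via 4-parameter fit. Viability (CC50) by CellTiter-Glo ATP on 5,000 cells/well after 4 days.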
Consider `CN(C(=O)Nc1ccc(Cl)c(C#N)c1)[C@@H]1COCc2[nH]c(=O)c3cc(F)c(F)cc3c21` [Compound 142, (S)-3-(4-Chloro-3-cyanophenyl)-1-(8,9-difluoro-6-oxo-1,4,5,6-tetrahydro-2H-pyrano[3,4-c]isoquinolin-1-yl)-1-methylurea], for which the EC50 was found to be 0.03 µM.
As for `CN(C(=O)Nc1ccc(Cl)c(Cl)c1)[C@@H]1COCc2[nH]c(=O)c3cc(F)c(F)cc3c21` [Compound 143, (S)-3-(3,4-Dichlorophenyl)-1-(8,9-difluoro-6-oxo-1,4,5,6-tetrahydro-2H-pyrano[3,4-c]isoquinolin-1-yl)-1-methylurea], the EC50 was found to be 0.02 µM.
For the compound `CN(C(=O)NC1(C(F)(F)F)CC1)C1CCCc2[nH]c(=O)c3cc(F)c(F)cc3c21` (stereo not drawn) [Compound 144, 1-(8,9-Difluoro-6-oxo-1,2,3,4,5,6-hexahydrophenanthridin-1-yl)-1-methyl-3-(1-(trifluoromethyl)cyclopropyl)urea], the EC50 was determined as 20 µM.
As to `CN(C(=O)NC1(C(F)(F)F)CC1)[C@@H]1COCc2[nH]c(=O)c3cc(F)c(F)cc3c21` [Compound 145, (S)-1-(8,9-Difluoro-6-oxo-1,4,5,6-tetrahydro-2H-pyrano[3,4-c]isoquinolin-1-yl)-1-methyl-3-(1-(trifluoromethyl)cyclopropyl)urea], the EC50 was 9 µM.
Same read-out and setting: under `CN(C(=O)Nc1ccc(O)c(Cl)c1)[C@@H]1COCc2[nH]c(=O)c3cc(F)c(F)cc3c21` [Compound 148, (S)-3-(3-Chloro-4-hydroxyphenyl)-1-(8,9-difluoro-6-oxo-1,4,5,6-tetrahydro-2H-pyrano[3,4-c]isoquinolin-1-yl)-1-methylurea] stands 0.76 µM.
For the compound `CN(C(=O)Nc1ccc(F)c(Cl)c1)C1COC(O)c2[nH]c(=O)c3cc(F)c(F)cc3c21` (stereo not drawn) [Compound 151, 3-(3-Chloro-4-fluorophenyl)-1-(8,9-difluoro-4-hydroxy-6-oxo-1,4,5,6-tetrahydro-2H1-pyrano[3,4-c]isoquinolin-1-yl)-1-methylurea], the EC50 turned out to be 0.02 µM.
Same read-out and setting: the figure for `CN1Cc2[nH]c(=O)c3cc(F)c(F)cc3c2C(N(C)C(=O)Nc2ccc(F)c(C#N)c2)C1` (stereo not drawn) [Compound 173, 3-(3-Cyano-4-fluorophenyl)-1-(8,9-difluoro-3-methyl-6-oxo-1,2,3,4,5,6-hexahydrobenzo[c][1,7]naphthyridin-1-yl)-1-methylurea] is 13 µM; for `CN(C(=O)Nc1ccc(F)c(Cl)c1)C1C[S+]([O-])Cc2[nH]c(=O)c3cc(F)ccc3c21` (stereo not drawn) [Compound 193, 3-(3-Chloro-4-fluorophenyl)-1-(8-fluoro-3-oxido-6-oxo-1,4,5,6-tetrahydro-2H-thiopyrano[3,4-c]isoquinolin-1-yl)-1-methylurea] it is 4.4 µM.
Still for that read-out and setting: the figure for `CN(C(=O)N1Cc2ccccc2C1)[C@@H]1COCc2[nH]c(=O)c3cc(F)c(F)cc3c21` [Compound 218, (S)—N-(8,9-Difluoro-6-oxo-1,4,5,6-tetrahydro-2H-pyrano[3,4-c]isoquinolin-1-yl)-N-methylisoindoline-2-carboxamide] is 1.2 µM; for `CN(C(=O)N1Cc2ccc(Cl)cc2C1)[C@@H]1COCc2[nH]c(=O)c3cc(F)c(F)cc3c21` [Compound 219, (S)-5-Chloro-N-(8,9-difluoro-6-oxo-1,4,5,6-tetrahydro-2H-pyrano[3,4-c]isoquinolin-1-yl)-N-methylisoindoline-2-carboxamide] it is 5.9 µM.
For `CN(C(=O)N1Cc2ccc(Br)cc2C1)[C@@H]1COCc2[nH]c(=O)c3cc(F)c(F)cc3c21` [Compound 220, (S)-5-Bromo-N-(8,9-difluoro-6-oxo-1,4,5,6-tetrahydro-2H-pyrano[3,4-c]isoquinolin-1-yl)-N-methylisoindoline-2-carboxamide], the EC50 was 13 µM.
On the same count and under the same terms, the figure for `CN(C(=O)N1Cc2ccc(F)cc2C1)[C@@H]1COCc2[nH]c(=O)c3cc(F)c(F)cc3c21` [Compound 221, (S)—N-(8,9-Difluoro-6-oxo-1,4,5,6-tetrahydro-2H-pyrano[3,4-c]isoquinolin-1-yl)-5-fluoro-N-methylisoindoline-2-carboxamide] is 5.9 µM.
On the same count and under the same terms, the figure for `CN(C(=O)Nc1ccc(F)c(C(F)F)c1)[C@@H]1COCc2c1c1cc(F)c(F)cc1c(=O)n2C` [Compound 233, (S)-1-(8,9-Difluoro-5-methyl-6-oxo-1,4,5,6-tetrahydro-2H-pyrano[3,4-c]isoquinolin-1-yl)-3-(3-(difluoromethyl)-4-fluorophenyl)-1-methylurea] is 0.02 µM; for `COc1nc2c(c3cc(F)c(F)cc13)[C@H](N(C)C(=O)Nc1ccc(F)c(C(F)F)c1)COC2` [Compound 234, (S)-1-(8,9-Difluoro-6-methoxy-1,4-dihydro-2H-pyrano[3,4-c]isoquinolin-1-yl)-3-(3-(difluoromethyl)-4-fluorophenyl)-1-methylurea] it is 0.05 µM.
Same read-out and setting: the figure for `CN(C(=O)Nc1ccc(F)c(Cl)c1)C1COCc2nc(NCCN)c3cc(F)c(F)cc3c21` (stereo not drawn) [Compound 240] is 0.59 µM; for `CN(C(=O)Nc1ccc(F)c(Cl)c1)[C@@H]1COCc2c1c1cc(F)c(F)cc1c(=O)n2C` [Compound 243, (S)-3-(3-Chloro-4-fluorophenyl)-1-(8,9-difluoro-5-methyl-6-oxo-1,4,5,6-tetrahydro-2H-pyrano[3,4-c]isoquinolin-1-yl)-1-methylurea] it is 0.02 µM; for `COc1nc2c(c3cc(F)c(F)cc13)[C@H](N(C)C(=O)Nc1ccc(F)c(Cl)c1)COC2` [Compound 244, (S)-3-(3-Chloro-4-fluorophenyl)-1-(8,9-difluoro-6-methoxy-1,4-dihydro-2H-pyrano[3,4-c]isoquinolin-1-yl)-1-methylurea] it is 0.08 µM.
For `CN(C(=O)Nc1ccc(F)c(C(F)F)c1)[C@@H]1COCc2c1c1cc(F)c(F)cc1c(=O)n2CCO` [Compound 251, (S)-1-(8,9-Difluoro-5-(2-hydroxyethyl)-6-oxo-1,4,5,6-tetrahydro-2H-pyrano[3,4-c]isoquinolin-1-yl)-3-(3-(difluoromethyl)-4-fluorophenyl)-1-methylurea], the EC50 was determined as 0.03 µM.
On to `CN(C(=O)Nc1ccc(F)c(C(F)F)c1)[C@@H]1COCc2nc(OCCN)c3cc(F)c(F)cc3c21` [Compound 252, (S)-1-(6-(2-Aminoethoxy)-8,9-difluoro-1,4-dihydro-2H-pyrano[3,4-c]isoquinolin-1-yl)-3-(3-(difluoromethyl)-4-fluorophenyl)-1-methylurea], for which the EC50 was found to be 0.02 µM.
For the compound `CN(C(=O)Nc1ccc(F)c(C(F)F)c1)[C@@H]1COCc2c1c1cc(F)c(F)cc1c(=O)n2CCN` [Compound 253, (S)-1-(5-(2-Aminoethyl)-8,9-difluoro-6-oxo-1,4,5,6-tetrahydro-2H-pyrano[3,4-c]isoquinolin-1-yl)-3-(3-(difluoromethyl)-4-fluorophenyl)-1-methylurea], the EC50 came out at 0.91 µM.
The same measure, in the same setting: under `CN(C(=O)Nc1ccc(F)c(Cl)c1)[C@@H]1COCc2c1c1cc(F)c(F)cc1c(=O)n2CCO` [Compound 254, (S)-3-(3-Chloro-4-fluorophenyl)-1-(8,9-difluoro-5-(2-hydroxyethyl)-6-oxo-1,4,5,6-tetrahydro-2H-pyrano[3,4-c]isoquinolin-1-yl)-1-methylurea] stands 0.058 µM.
On to `CN(C(=O)Nc1ccc(F)c(Cl)c1)[C@@H]1COCc2nc(OCCO)c3cc(F)c(F)cc3c21` [Compound 255, (S)-3-(3-Chloro-4-fluorophenyl)-1-(8,9-difluoro-6-(2-hydroxyethoxy)-1,4-dihydro-2H-pyrano[3,4-c]isoquinolin-1-yl)-1-methylurea], for which the EC50 was 0.049 µM.
On the same count and under the same terms, under `CN(C(=O)Nc1ccc(F)c(C(F)F)c1)[C@@H]1COCc2nc(OCCO)c3cc(F)c(F)cc3c21` [Compound 256, (S)-1-(8,9-Difluoro-6-(2-hydroxyethoxy)-1,4-dihydro-2H-pyrano[3,4-c]isoquinolin-1-yl)-3-(3-(difluoromethyl)-4-fluorophenyl)-1-methylurea] stands 0.019 µM; under `CN(C(=O)Nc1ccc(F)c(Cl)c1)[C@@H]1COCc2c1c1cc(F)c(F)cc1c(=O)n2CCN` [Compound 257, (S)-1-(5-(2-Aminoethyl)-8,9-difluoro-6-oxo-1,4,5,6-tetrahydro-2H-pyrano[3,4-c]isoquinolin-1-yl)-3-(3-chloro-4-fluorophenyl)-1-methylurea], 3.1 µM; under `CN(C(=O)Nc1ccc(F)c(Cl)c1)[C@@H]1COCc2nc(OCCN)c3cc(F)c(F)cc3c21` [Compound 258, (S)-1-(6-(2-Aminoethoxy)-8,9-difluoro-1,4-dihydro-2H-pyrano[3,4-c]isoquinolin-1-yl)-3-(3-chloro-4-fluorophenyl)-1-methylurea], 0.065 µM.

The same assay, now with this note: Hepatitis B virus, HepDE19, 168 h, read-out: DE-19bDNA EC50 (uM), inhibition of rcDNA formation in HepDE19 cells (HepG2 derived), Tet-free medium, 7 day incubation, Quantigene 2.0 bDNA readout, top concentration 25 μM.
`COc1ccc(NC(=O)N(C)[C@@H]2COCc3[nH]c(=O)c4cc(F)c(F)cc4c32)cc1Cl` [Compound 147, (S)-3-(3-Chloro-4-methoxyphenyl)-1-(8,9-difluoro-6-oxo-1,4,5,6-tetrahydro-2H-pyrano[3,4-c]isoquinolin-1-yl)-1-methylurea]: the EC50 worked out at 0.14 µM.
The same measure, in the same setting: under `CN(C(=O)N1Cc2ccc(C(F)(F)F)cc2C1)[C@@H]1COCc2[nH]c(=O)c3cc(F)c(F)cc3c21` [Compound 230, (S)—N-(8,9-Difluoro-6-oxo-1,4,5,6-tetrahydro-2H-pyrano[3,4-c]isoquinolin-1-yl)-N-methyl-5-(trifluoromethyl)isoindoline-2-carboxamide] stands 24 µM.

Source of the values: patent US20230108906A1, “SUBSTITUTED BICYCLIC AND TRICYCLIC UREAS AND AMIDES, ANALOGUES THEREOF, AND METHODS USING SAME” (Arbutus Biopharma Corporation, priority 2019, published 2023).
